Results as given in patent US20170246190A1, “METHODS AND FORMULATION FOR IMPROVING ORAL AVAILABILITY OF CPT-11 WHILE REDUCING CPT-11 INDUCED GASTROINTESTINAL TOXICITY IN CANCER THERAPY” (Johnpro Biotech Inc., priority 2014, published 2017).
Where a name gives a salt, the structure may show the parent alone.

Legend:
[1] = Oral availability of CPT-11: blood levels of CPT-11 and SN-38 by HPLC in mice bearing HT29 xenograft tumors; assay type: in vivo, NOD/SCID mice; conditions: oral CPT-11 40 mg/Kg alone, 4 hrs after ingestion, FIG. 1A
Protocol: (§1) To inoculate tumor, HT29 cells (1×10^6 cells per injection) were injected subcutaneously to lab animals to generate s.c. tumors on day 1, which were allowed to grow to about 5 mm in diameter. Two sets of experiments were conducted.
In the second set of experiment, oral availability of CPT-11 was evaluated. The animals were randomly assigned to 3 groups, in which animals in group 1 (N=5) were on normal diet; animals in group 2 (N=5) received oral CPT-11 treatment (40 mg/Kg), and animals in group 3 (N=5) received a dose of dose of UDCA (20 mg/Kg) on day 1, an hour later, one dose of CPT-11 (40 mg/Kg) and one dose of silymarin (100 mg/Kg) were given. Blood samples were respectively taken at 1, 4, 8 hrs after the combined treatment of CPT-11 and on days 4, and 8; and the level of SN-38 (i.e., an active metabolite of CPT-11) was measured by HPLC. The body weight (BW) of each animal was measured daily.
The animals bearing xenografted s.c. colon tumors were randomly assigned into 3 groups, in which group 1 received no treatment, group 2 received one dose of oral treatment of CPT-11 (40 mg/Kg), and group 3 received UDCA (20 mg/Kg), CPT-11 (40 mg/Kg) and silymarin (100 mg/Kg) via oral ingestion in accordance with procedures described in the “Materials and methods” section. […]

[2] = test system: NOD/SCID mice; assay: Histological analysis (H&E) of colon tissues after oral CPT-11 treatment; assay type: in vivo; conditions: oral CPT-11 50 mg/Kg, with or without silychristin 10 mg/Kg; FIG. 2
Protocol: as §1
(§2) In the first set of experiment, effects of silymarin on the reduction of CPT-11 induced bloody stool were investigated. […] At the end of the experiments, the animals were sacrificed and colon tissues from each animals were stained and used in histological analysis.

[3] = test system: NOD/SCID mice; assay: Bloody diarrhea evaluation by daily naked-eye observation; assay type: in vivo; conditions: oral CPT-11 50 mg/Kg and/or silychristin 10 mg/Kg
Protocol: as §1, §2

[4] = biological target: T1, human βG (hβG) (Homo sapiens, UniProt P08236); assay: Beta-glucuronidase activity with fluorogenic substrate MUG, human enzyme; assay type: biochemical; conditions: 8 μM; FIG. 3B
T1 sequence (P08236 23-651): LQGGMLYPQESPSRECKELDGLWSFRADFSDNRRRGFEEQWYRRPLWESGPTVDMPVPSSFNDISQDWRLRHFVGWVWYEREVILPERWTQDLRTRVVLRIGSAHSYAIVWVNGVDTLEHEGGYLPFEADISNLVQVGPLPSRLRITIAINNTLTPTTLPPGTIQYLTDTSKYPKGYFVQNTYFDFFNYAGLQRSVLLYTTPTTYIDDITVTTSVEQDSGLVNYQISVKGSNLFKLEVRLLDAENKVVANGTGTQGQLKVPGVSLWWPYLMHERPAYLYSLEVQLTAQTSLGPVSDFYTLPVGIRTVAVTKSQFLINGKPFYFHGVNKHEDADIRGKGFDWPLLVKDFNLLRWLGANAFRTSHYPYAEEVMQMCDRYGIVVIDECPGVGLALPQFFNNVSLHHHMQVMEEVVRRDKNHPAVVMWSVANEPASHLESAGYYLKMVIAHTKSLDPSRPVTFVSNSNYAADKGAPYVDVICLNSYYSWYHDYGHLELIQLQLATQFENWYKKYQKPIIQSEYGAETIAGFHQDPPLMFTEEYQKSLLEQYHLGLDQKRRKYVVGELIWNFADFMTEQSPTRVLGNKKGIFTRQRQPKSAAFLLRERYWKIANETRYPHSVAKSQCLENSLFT
Protocol: (§3) The βG activity in solution was determined with the fluorogenic substrate 4-methylumbellifery β-D-glucuronide (MUG), in which the non-fluorescent MUG would give rise to glucuronic acid and a highly fluorescent product, 4-methylumbelliferone (4-MU), at higher pH, after being converted by βG. The reaction can be quenched by the addition of a basic solution of sodium carbonate, and pH may be adjusted to quantitate the fluorescent signals. […] After 10 minutes, the assays were quenched at 15 second intervals by adding 1.9 ml of the carbonate stopping buffer. The samples were subject to fluorescence measurement, and the data was converted to nmol MUG hydrolyzed as an indication of GUS enzyme activity.
(§4) Silymarin is known to be a mixture of flavonolignans extracted from blessed milk thistle (Silybum marianum). […] Results are illustrated in FIGS. 3A and 3B.

[5] = biological target: E. Coli βG (eβG) (Escherichia coli, UniProt P05804); assay: Beta-glucuronidase activity with fluorogenic substrate MUG, E. Coli enzyme; assay type: biochemical; conditions: FIG. 3A
Protocol: as §3, §4

[6] = test system: normal cells HEK-293; assay: Cell viability assay (MTS) on normal cells; assay type: cell-based, human; conditions: 100 μM; FIG. 4
Protocol: Cell line used in the present disclosure were human colon carcinoma cell line HT29, and human embryonic kidney cell line HEK-293. HT29 cells were cultured and maintained in Dulbecco's modified Eagle media (DMEM) supplemented with 10% heat inactivated fetal bovine serum (FBS), 50 units/mL penicillin G, 50 μg/mL streptomycin (pH 7.4), while HEK-293 cells were cultured in complete SFMII growth medium supplemented with 4mM L-glutamine. Both cell lines were maintained in humidified environment comprising 5% CO2/95% air at 37° C.
Cell were cultured at a density of 1.0×10^5 cells/well in 96-well round-bottom plates (Falcon, UK) containing 200 μL of culturing medium. Cells were maintained for two days at 37° C. in a humidified, 5% CO2 atmosphere. The proliferation rate of the cells was determined by MTS assay (CellTiter 96 aqueous one-solution cell proliferation assay; Promega, Wis., USA). Forty microliters of CellTiter 96 aqueous one-solution were added to each well. After incubation for 4hrs, the UV absorbance of the solution was measured at a wavelength of 490 nm. All MTS assays were performed in triplicate.

Chain of E. Coli βG (eβG) (P05804 whole entry): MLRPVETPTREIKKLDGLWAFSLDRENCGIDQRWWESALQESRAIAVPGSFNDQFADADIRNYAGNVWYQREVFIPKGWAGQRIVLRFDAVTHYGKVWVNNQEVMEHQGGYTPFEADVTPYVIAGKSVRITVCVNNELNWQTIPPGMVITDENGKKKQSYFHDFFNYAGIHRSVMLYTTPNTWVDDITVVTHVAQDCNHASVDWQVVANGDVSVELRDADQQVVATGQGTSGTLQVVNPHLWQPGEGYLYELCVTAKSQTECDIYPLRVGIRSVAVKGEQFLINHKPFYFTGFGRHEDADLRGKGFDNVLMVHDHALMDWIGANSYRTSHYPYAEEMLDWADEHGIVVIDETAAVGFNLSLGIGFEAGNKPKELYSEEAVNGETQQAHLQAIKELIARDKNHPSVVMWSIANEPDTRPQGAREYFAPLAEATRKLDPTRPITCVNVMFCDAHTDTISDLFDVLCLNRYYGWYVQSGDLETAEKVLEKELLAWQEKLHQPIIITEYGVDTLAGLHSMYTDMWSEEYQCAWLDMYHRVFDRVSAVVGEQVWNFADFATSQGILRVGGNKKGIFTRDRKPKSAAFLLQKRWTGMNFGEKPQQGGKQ

Row | Structure (SMILES) | blood level of CPT-11 [1] | colon tissue damage (morphology and integrity of epithelial cells), H&E histology [2] | number of animals that exhibited bloody stool / bloody diarrhea [3] | effect on the activity of hβG [4] | inhibition of eβG activity ([5]; 8 μM) [%] | eβG activity ([5]; 40 μM) | effect on normal cells' activities (viability of HEK-293) [6]
1 | CCc1c2c(nc3ccc(OC(=O)N4CCC(N5CCCCC5)CC4)cc13)-c1cc3c(c(=O)n1C2)COC(=O)[C@]3(O)CC [CPT-11, Irinotecan hydrochloride] | undetectable level | severe damage | 4 animals | – | – | – | –
2 | COc1cc([C@@H]2Oc3c(O)cc([C@H]4Oc5cc(O)cc(O)c5C(=O)[C@@H]4O)cc3[C@H]2CO)ccc1O [silychristin] | – | – | none | without affecting | ~80 | negligible level | did not adversely affect
